Inhibition and Ki data for eleven compounds are collected here from ChEMBL document CHEMBL3046061, “Quinolinedione nucleus as a novel scaffold for A1 and A2A adenosine receptor antagonists” (Med Chem Res, 2008).

Test [1] has as its target T1, Adenosine receptor A1 (Homo sapiens) (UniProt P30542).
T1 sequence (whole entry): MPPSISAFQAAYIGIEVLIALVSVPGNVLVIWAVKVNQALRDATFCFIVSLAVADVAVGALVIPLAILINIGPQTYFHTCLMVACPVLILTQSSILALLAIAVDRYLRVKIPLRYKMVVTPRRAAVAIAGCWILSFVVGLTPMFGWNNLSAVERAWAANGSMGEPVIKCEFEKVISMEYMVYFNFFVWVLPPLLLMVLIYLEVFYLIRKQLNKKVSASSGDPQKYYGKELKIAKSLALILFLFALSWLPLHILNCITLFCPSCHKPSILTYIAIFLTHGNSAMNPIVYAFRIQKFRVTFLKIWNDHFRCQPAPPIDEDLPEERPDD
The experiment in a line: Displacement of [3H]DPCPX from Homo sapiens (human) adenosine A1 receptor expressed in CHO cells at 10 uM. Type of test: cell-based. Background: Displacement assays read how much labelled ligand stays bound in the presence of the test substance.

Test [2] deals with cAMP phosphodiesterase 3 (Cavia porcellus). The experiment in a line: Inhibition of Cavia porcellus (guinea pig) PDE3 isolated from heart using [3H]cAMP as substrate at 50 uM by two-step method.
The target of test [3] is T2, Adenosine receptor A1 (Bos taurus) (UniProt P28190).
T2 sequence (whole entry): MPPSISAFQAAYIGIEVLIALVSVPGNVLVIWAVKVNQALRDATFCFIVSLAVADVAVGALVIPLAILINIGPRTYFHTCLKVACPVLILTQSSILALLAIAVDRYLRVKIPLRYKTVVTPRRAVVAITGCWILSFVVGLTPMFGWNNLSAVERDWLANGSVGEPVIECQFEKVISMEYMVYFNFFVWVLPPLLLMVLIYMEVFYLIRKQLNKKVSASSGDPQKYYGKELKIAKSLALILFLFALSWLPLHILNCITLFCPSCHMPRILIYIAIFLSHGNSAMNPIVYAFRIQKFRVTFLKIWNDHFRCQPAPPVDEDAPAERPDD
The test is described as follows: Displacement of [3H]DPCPX from adenosine A1 receptor in Bos taurus (bovine) cortical membrane at 10 uM.

Test [4] has as its target T3, Adenosine receptor A3 (Homo sapiens) (UniProt P0DMS8).
T3 sequence (whole entry): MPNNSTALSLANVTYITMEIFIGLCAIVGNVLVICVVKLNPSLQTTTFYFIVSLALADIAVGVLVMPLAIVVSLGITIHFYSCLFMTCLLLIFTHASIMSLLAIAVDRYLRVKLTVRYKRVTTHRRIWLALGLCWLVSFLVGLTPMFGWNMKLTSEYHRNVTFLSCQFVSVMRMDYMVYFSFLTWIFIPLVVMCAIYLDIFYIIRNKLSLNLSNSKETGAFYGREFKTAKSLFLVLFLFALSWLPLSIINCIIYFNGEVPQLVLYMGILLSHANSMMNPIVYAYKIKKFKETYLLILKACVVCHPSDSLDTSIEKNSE
The test is described as follows: Displacement of [125I]AB-MECA from Homo sapiens (human) adenosine A3 receptor expressed in CHO cells at 10 uM. The test is classed as cell-based.

The subject of test [5] is cAMP phosphodiesterase 3 (Cavia porcellus). The test is described as follows: Inhibition of Cavia porcellus (guinea pig) PDE3 isolated from heart using [3H]cAMP as substrate at 1 uM by two-step method.
Test [6] addresses Uncharacterized protein (Bos taurus) (UniProt E1BKU0). The test is described as follows: Displacement of [3H]CGS21680 from adenosine A2A receptor in Bos taurus (bovine) cortical membrane at 10 uM.
The subject of test [7] is cAMP phosphodiesterase 3 (Cavia porcellus). The test is described as follows: Inhibition of Cavia porcellus (guinea pig) PDE3 isolated from heart using [3H]cAMP as substrate at 100 uM by two-step method.
The test system is the same in test [8]. The experiment in a line: Inhibition of Cavia porcellus (guinea pig) PDE3 isolated from heart using [3H]cAMP as substrate at 10 uM by two-step method.
The target in test [9] is T4, Adenosine receptor A2a (Homo sapiens, UniProt P29274). The experiment in a line: Displacement of [3H]CGS21680 from Homo sapiens (human) adenosine A2A receptor expressed in CHO cells at 10 uM. The test is classed as cell-based.
Test [10] addresses T5, Adenosine receptor A1 (Bos taurus, UniProt P28190).
T5 sequence (P28190 whole entry): T2 sequence (whole entry)
The experiment in a line: Displacement of [3H]DPCPX from adenosine A1 receptor in Bos taurus (bovine) cortical membrane.

Test [11] has as its target T6, Adenosine receptor A1 (Homo sapiens, UniProt P30542).
T6 sequence (P30542 whole entry): T1 sequence (whole entry)
The experiment in a line: Displacement of [3H]DPCPX from Homo sapiens (human) adenosine A1 receptor expressed in CHO cells. Type of test: cell-based.

Another test has as its target Uncharacterized protein (Bos taurus, UniProt E1BKU0). The test is described as follows: Displacement of [3H]CGS21680 from adenosine A2A receptor in Bos taurus (bovine) cortical membrane.
Test [12] concerns the target T4, Adenosine receptor A2a. The experiment in a line: Displacement of [3H]CGS21680 from Homo sapiens (human) adenosine A2A receptor expressed in CHO cells. Type of test: cell-based.

Uncharacterized protein (Bos taurus), sequence (E1BKU0 as listed by the source): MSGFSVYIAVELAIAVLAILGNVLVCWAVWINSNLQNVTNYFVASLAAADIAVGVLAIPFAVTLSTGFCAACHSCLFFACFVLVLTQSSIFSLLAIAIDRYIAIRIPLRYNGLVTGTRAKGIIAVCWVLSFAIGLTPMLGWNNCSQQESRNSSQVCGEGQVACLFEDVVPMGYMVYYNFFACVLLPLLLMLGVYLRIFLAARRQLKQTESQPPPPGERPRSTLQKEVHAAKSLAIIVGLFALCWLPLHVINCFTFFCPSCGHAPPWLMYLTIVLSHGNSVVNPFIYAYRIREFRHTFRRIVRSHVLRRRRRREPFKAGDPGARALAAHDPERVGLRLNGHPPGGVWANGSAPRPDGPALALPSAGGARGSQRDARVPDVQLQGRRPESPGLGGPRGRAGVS
T4 sequence (P29274 whole entry): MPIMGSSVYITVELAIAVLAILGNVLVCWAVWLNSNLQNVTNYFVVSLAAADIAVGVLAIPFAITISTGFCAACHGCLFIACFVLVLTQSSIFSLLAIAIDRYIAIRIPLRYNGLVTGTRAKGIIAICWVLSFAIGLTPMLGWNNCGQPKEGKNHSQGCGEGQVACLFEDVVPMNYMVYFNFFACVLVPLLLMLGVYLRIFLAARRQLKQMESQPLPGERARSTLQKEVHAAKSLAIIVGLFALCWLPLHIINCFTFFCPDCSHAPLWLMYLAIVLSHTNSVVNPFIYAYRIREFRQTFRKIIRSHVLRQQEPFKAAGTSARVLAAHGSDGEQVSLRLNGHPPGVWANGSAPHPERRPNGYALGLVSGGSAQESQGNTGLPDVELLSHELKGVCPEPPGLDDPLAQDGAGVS
Uncharacterized protein, sequence (E1BKU0 whole entry): as the sequence (E1BKU0 as listed by the source) above

Consider `CC(C)(C)C(=O)c1cc2c([nH]c1=O)CCCC2=O`, for which the inhibition (in general, the relative decrease from the control value, in per cent) in [1] is 0%; in test [2], 6.6%; in [3], 13%; in test [4], 0%; in [5], 0%; in test [6] it was 0%. Also, the inhibition stood at 6.6% in [7] and 2.5% in [8].
For `O=C1CC(c2ccccc2)Cc2[nH]c(=O)c(C(=O)c3ccccc3)cc21` (centres undefined), the inhibition in [1] worked out at 5%; in [2], 1.7%; in test [4], 0%; in test [5], 0%; at Adenosine receptor A2a [9] it was 16%; in test [6], 0%. In addition, the inhibition turned out to be 7.8% in test [7] and 5.2% in test [8]. At Adenosine receptor A1 [10], the Ki (usually a measure of affinity in units of concentration, obtained from inhibition or displacement) stood at 6.5 µM.
On to `CC(=O)c1cc(C(=O)C(C)(C)C)c(=O)[nH]c1C`, for which the inhibition came to 2.15% in test [2]; 0% in test [3]; 13% in [4]; 0% in test [5]; 11% in test [6]; 8.23% in [7]. The same compound displayed an inhibition in test [8] of 1.15%.
For the compound `O=C1CC(c2ccccc2)Cc2[nH]c(=O)c(S(=O)(=O)c3ccccc3)cc21` (centres undefined), the Ki was found to be 7.8 µM on Adenosine receptor A1 [11], 7.9 µM at Uncharacterized protein, 7 µM on Adenosine receptor A2a [12] and 5.8 µM at Adenosine receptor A1 [10]. The inhibition in [2] is 5.7%; in test [4], 18%; in test [5], 0%; in test [7] it was 10.4%; in test [8], 0%.
On to `O=C(c1ccccc1)c1cc(S(=O)(=O)c2ccccc2)c(=O)[nH]c1-c1ccccc1`, for which the inhibition in test [1] was 1%; in [2], 3.5%; in test [3], 8%; in test [4], 0%; in [5] it was 0%; on Adenosine receptor A2a [9], 11%. Moreover, the inhibition was found to be 8% in test [6], 7.53% in test [7] and 0% in test [8].
For `O=C1CCCc2[nH]c(=O)c(C(=O)c3ccccc3)cc21`, the inhibition in test [2] was determined as 4.3%; in [3] it was 6%; in [4], 0%; in test [5], 0%; in test [6] it was 4%; in [7] it was 6%. In test [8], the inhibition stood at 0%.
As to `CC(C)(C)C(=O)c1cc2c([nH]c1=O)CC(c1ccccc1)CC2=O` (centres undefined), the inhibition in test [1] was determined as 11%; in [2], 3.3%; in test [4], 21%; in test [5] it was 0%; in [7] it was 4.2%; in test [8] it was 0.8%. Moreover, the Ki on Uncharacterized protein is 15 µM; on Adenosine receptor A2a [12] it was 16 µM; at Adenosine receptor A1 [10], 5.1 µM.
With `CC(=O)c1cc(C(=O)c2ccccc2)c(=O)[nH]c1C`, the inhibition worked out at 4.35% in [2]; 0% in test [3]; 0% in test [4]; 0% in [5]; 0% in test [6]; 8.9% in [7]. Besides, the inhibition in test [8] came out at 2%.
Regarding `CC(=O)c1cc(S(=O)(=O)c2ccccc2)c(=O)[nH]c1C`, the inhibition in [2] stood at 3.98%; in [3] it was 0%; in test [4] it was 0%; in [5], 0%; in [6], 0%; in [7], 8.72%. The compound also displayed an inhibition in test [8] of 1.03%.
Take `O=C(c1ccccc1)c1cc(C(=O)c2ccccc2)c(=O)[nH]c1-c1ccccc1`: the inhibition in [1] is 2%; in [2] it was 5.4%; in test [3], 13%; in test [4], 2%; in [5] it was 0%; on Adenosine receptor A2a [9] it was 13%. Further, the results for the inhibition in test [6], in test [7] and in test [8] were 8%, 9.6% and 1.76%, respectively.
For the compound `O=C1CCCc2[nH]c(=O)c(S(=O)(=O)c3ccccc3)cc21`, the inhibition in test [1] is 36%; in test [2], 4.7%; in [3], 10%; in [4], 0%; in test [5], 0%; in test [6] it was 2%. For the same compound, the inhibition is 5.7% in [7] and 0% in test [8].
